target: T1, bradykinin 1 receptor (B1R) of the rat (Rattus norvegicus, UniProt P97583); test: Functional investigation on the rat bradykinin 1 receptor (B1R), Ca2+ FLIPR assay in CHO K1 rB1R cells; type: cell-based; conditions: CHO-K1, B1R antagonism rat; test substance 10 μM; Ca2+ FLIPR, CHO K1 rB1R cells; read-out: B1R Ant. r [10 μM] % Inhibition
T1 construct: expressed in transfected cells; host or cells: CHO K1 cells
T1 sequence (P97583 1-337): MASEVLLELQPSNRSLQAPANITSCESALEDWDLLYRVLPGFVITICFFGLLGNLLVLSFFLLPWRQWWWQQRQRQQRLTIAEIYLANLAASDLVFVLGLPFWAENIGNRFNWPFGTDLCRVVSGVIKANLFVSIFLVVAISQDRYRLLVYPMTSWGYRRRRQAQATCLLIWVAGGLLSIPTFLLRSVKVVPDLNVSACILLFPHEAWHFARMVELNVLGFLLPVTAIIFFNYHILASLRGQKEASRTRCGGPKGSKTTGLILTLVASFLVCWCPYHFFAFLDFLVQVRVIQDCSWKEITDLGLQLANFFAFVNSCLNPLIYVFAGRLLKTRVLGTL
Procedure, shortened: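 Stably transfected CHO K1 cells loaded with Fluo-4; FLIPR Ca2+ fluorescence peak (ex 488/em 540 nm). Compound added first (agonism vs Lys-Des-Arg9-bradykinin ≥50 nM human, Des-Arg9-bradykinin 10 μM rat), then after 10-20 min agonist at EC80; antagonism as % inhibition, IC50 from concentration series, n=2-3, N≥2.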

SMILES	inhibition at 10 µM
COc1cc(C)c(S(=O)(=O)N2CCN(CCOCC(=O)NCC3CCC(C(c4ccccc4)N(C)C)CC3)CC2)c(C)c1C (stereo not drawn) [Example 61, N-((4-((dimethylamino)(phenyl)methyl)cyclohexyl)methyl)-2-(2-(4-(4-methoxy-2,3,6-trimethylphenylsulfonyl)piperazin-1-yl)ethoxy)acetamide]	25%
Cc1cc(C)c(S(=O)(=O)N(C)CCOCC(=O)NCC2CCC(C(c3cccs3)N(C)C)CC2)c(C)c1 (stereo not drawn) [Example 57, N-((4-((dimethylamino)(thiophen-2-yl)methyl)cyclohexyl)methyl)-2-(2-(N,2,4,6-tetramethylphenylsulfonamido)ethoxy)acetamide]	35%
COc1cc(C)c(S(=O)(=O)N2CCC(OCC(=O)NCC3CCC(C(c4cccs4)N(C)C)CC3)C2)c(C)c1 (stereo not drawn) [Example 86, N-((4-((dimethylamino)(thiophen-2-yl)methyl)cyclohexyl)methyl)-2-(1-(4-methoxy-2,6-dimethylphenylsulfonyl)pyrrolidin-3-yloxy)acetamide]	100%
COc1ccc(S(=O)(=O)N(C)CCOCC(=O)NC2CCC(C(c3cccs3)N(C)C)CC2)cc1 (stereo not drawn) [Example 73, N-(4-((dimethylamino)(thiophen-2-yl)methyl)cyclohexyl)-2-(2-(4-methoxy-N-methylphenylsulfonamido)ethoxy)acetamide]	29%
COc1ccc(S(=O)(=O)N2Cc3ccccc3CC2COCC(=O)NC2CCC(C(c3ccccc3)N(C)C)CC2)cc1 (stereo not drawn) [Example 38, N-(4-((dimethylamino)(phenyl)methyl)cyclohexyl)-2-((2-(4-methoxyphenylsulfonyl)-1,2,3,4-tetrahydroisoquinolin-3-yl)methoxy)acetamide]	46%
CN(C)C(c1cccs1)C1CCC(NC(=O)COCCN(C)S(=O)(=O)c2ccc(Cl)cc2)CC1 (stereo not drawn) [Example 83, 2-(2-(4-chloro-N-methylphenylsulfonamido)ethoxy)-N-(4-((dimethylamino) (thiophen-2-yl)methyl)cyclohexyl)acetamide]	11%
COc1cc(C)c(S(=O)(=O)N2CCC(CCOCC(=O)NCCC3CCC(C(c4cccs4)N(C)C)CC3)CC2)c(C)c1C (stereo not drawn) [Example 75, N-(2-(4-((dimethylamino)(thiophen-2-yl)methyl)cyclohexyl)ethyl)-2-(2-(1-(4-methoxy-2,3,6-trimethylphenylsulfonyl)piperidin-4-yl)ethoxy)acetamide]	15%
COc1ccc(S(=O)(=O)N2CCCCC2COCC(=O)NCC2CCC(C(c3ccccc3)N(C)C)CC2)cc1 (stereo not drawn) [Example 88, N-((4-((dimethylamino)(phenyl)methyl)cyclohexyl)methyl)-2-((1-(4-methoxyphenylsulfonyl)piperidin-2-yl)methoxy)acetamide]	68%
CN(C)C(c1ccccc1)C1CCC(CNC(=O)COCCN(C)S(=O)(=O)c2ccc(OC(F)(F)F)cc2)CC1 (stereo not drawn) [Example 53, N-((4-((dimethylamino)(phenyl)methyl)cyclohexyl)methyl)-2-(2-(N-methyl-4-(trifluoromethoxy)phenylsulfonamido)ethoxy)acetamide]	41%
COc1ccc(S(=O)(=O)N2CCCC2COCC(=O)NCCC2CCC(C(c3cccs3)N(C)C)CC2)cc1 (stereo not drawn) [Example 77, N-(2-(4-((dimethylamino)(thiophen-2-yl)methyl)cyclohexyl)ethyl)-2-((1-(4-methoxyphenylsulfonyl)pyrrolidin-2-yl)methoxy)acetamide]	44%
COc1ccc(S(=O)(=O)N2CCCCC2COCC(=O)NCC2CCC(C(c3cccs3)N(C)C)CC2)cc1 (stereo not drawn) [Example 45, N-((4-((dimethylamino)(thiophen-2-yl)methyl)cyclohexyl)methyl)-2-((1-(4-methoxyphenylsulfonyl)piperidin-2-yl)methoxy)acetamide]	65%

same assay, conditions: CHO-K1, read-out: B1R Ant. r [10 μM] % Inhibition

SMILES	inhibition at 10 µM
CN(C)C(c1cccs1)C1CCC(NC(=O)COC2CCCN(S(=O)(=O)c3ccccc3)C2)CC1 (stereo not drawn) [Example 42, N-(4-((dimethylamino)(thiophen-2-yl)methyl)cyclohexyl)-2-(1-(phenylsulfonyl)piperidin-3-yloxy)acetamide]	-17%

Source: US8106055B2, “Substituted amide compounds” (Gruenenthal GmbH, priority 2007, dated 2012)
